Laboratory results as given in patent publication US9023809B2, “Phenylalanine dipeptide derivatives, compositions and use thereof” (The Key Laboratory of Chemistry For Natural Products of …, priority 2008, dated 2015).
In brackets after ≈: the same amount, converted by molar mass. Several values for one entry are separate records, joined by “and”; a condition that tells them apart may be missing. Identical values can stand only once. Where a SMILES comes first, the peptide text is derived from it. [ ]: non-standard residue; d: D form. The star is where a group is joined. Tyr(3-NO2) = N[C@@H](Cc1ccc(O)c([N+](=O)[O-])c1)C(=O)O; Phe(4-NO2) = N[C@@H](Cc1ccc([N+](=O)[O-])cc1)C(=O)O; Phe(4-NH2) = Nc1ccc(C[C@H](N)C(=O)O)cc1; 4Abz = Nc1ccc(C(=O)O)cc1; Propionyl = CCC(=O)*; Bz = O=C(c1ccccc1)*; ClAc = O=C(CCl)*

Experiments:
HBV DNA replication = test: In vitro anti-HBV: inhibition of HBV DNA replication in 2.2.15 cells (dot blot); type: cell-based, hepatitis B virus; conditions: day 8, dot blot; for IC50: Hepatitis B virus, 192 h
Protocol: (§1) Cell control wells were simultaneously set up. […] IC50 and SI were calculated, respectively.

2.2.15 cells = test: Cytotoxicity (TC50, median toxic concentration) in 2.2.15 cells; type: cell-based
Protocol: as §1

`COC(=O)[C@H](Cc1ccccc1)NC(=O)[C@H](Cc1ccccc1)NC(=O)c1ccc(O)cc1` gave a melting point of 151 to 153 °C.
In the case of `COC(=O)[C@H](Cc1ccccc1)NC(=O)[C@H](Cc1ccc(O)cc1)NC(=O)c1ccc([N+](=O)[O-])cc1`, the melting point is reported as 212 to 214 °C.
In the case of `COC(=O)[C@H](Cc1ccccc1)NC(=O)[C@H](Cc1ccc(O)cc1)NC(=O)c1ccc(C)cc1`, the melting point is reported as 190 to 192.5 °C.
With `O=C(N[C@@H](Cc1ccc(O)cc1)C(=O)N[C@H](CO)Cc1ccccc1)c1cccc([N+](=O)[O-])c1` the melting point was 225.5 to 227 °C.
With `COC(=O)[C@H](Cc1ccccc1)NC(=O)[C@H](Cc1ccccc1)NCc1ccncc1` the melting point was 174 to 175 °C.
`COC(=O)[C@H](Cc1ccc([N+](=O)[O-])cc1)NC(=O)[C@H](Cc1ccccc1)NCc1ccncc1` gave a melting point of 224.5 to 225.5 °C.
Work on `COC(=O)[C@H](Cc1ccccc1)NC(=O)[C@H](Cc1ccc(O)cc1)NCc1ccncc1` yielded a melting point of 206.5 to 209 °C.
Work on `COC(=O)[C@H](Cc1ccc(NC(C)=O)cc1)NC(=O)[C@H](Cc1ccccc1)NC(=O)c1ccc(C)cc1` yielded a melting point of 221.5 to 222 °C.
Compound `COC(=O)[C@H](Cc1ccccc1)NC(=O)[C@H](Cc1ccccc1)NC(=O)c1ccc(NC(C)=O)cc1` (Ac-[4Abz]-Phe-Phe-OMe) has a melting point of 208 to 209.5 °C.
Compound `COC(=O)[C@H](Cc1ccccc1)NC(=O)[C@H](Cc1ccc(O)cc1)NC(=O)c1ccc(NC(C)=O)cc1` (Ac-[4Abz]-Tyr-Phe-OMe) has a melting point of 225 to 226 °C.
In the case of `COC(=O)[C@H](Cc1ccccc1)NC(=O)[C@H](Cc1ccc(O)cc1)NC(=O)c1ccccc1` (Bz-Tyr-Phe-OMe), the melting point is reported as 200 to 202 °C.
In the case of `COC(=O)[C@H](Cc1ccccc1)NC(=O)[C@H](Cc1ccc(O)c([N+](=O)[O-])c1)NC(=O)c1ccccc1` (Bz-[Tyr(3-NO2)]-Phe-OMe), the melting point is reported as 201 to 202.5 °C.
Compound `COC(=O)[C@H](Cc1ccccc1)NC(=O)[C@H](Cc1ccccc1)NC(=O)c1ccc(NC(=O)CCl)cc1` ({ClAc-4Abz}-Phe-Phe-OMe) has a melting point of 222.5 to 224.5 °C.
For `COC(=O)[C@H](Cc1ccccc1)NC(=O)[C@H](Cc1ccccc1)NC(=O)c1ccc(F)cc1` [Example 03, methyl N-(N-4-fluoro-benzoyl-L-phenylalanyl)-L-phenylalaninate], the IC50 (HBV DNA replication) was 0.63 µg/mL (≈ 1.4 µM) and the TC50 (2.2.15 cells) was 17.81 µg/mL (≈ 39.7 µM).
For `O=C(N[C@@H](Cc1ccc([N+](=O)[O-])cc1)C(=O)N[C@H](CO)Cc1ccccc1)c1ccccc1` [Example 06, N-(N-benzoyl-4-nitro-L-phenylalanyl)-L-phenylalaninol], the melting point was 196 to 199 °C and the TC50 (2.2.15 cells) was 53.42 µg/mL (≈ 119 µM).
`COC(=O)[C@H](Cc1ccccc1)NC(=O)[C@H](Cc1ccccc1)NC(=O)c1cccc(C)c1` [Example 09, methyl N-(N-3-methyl-benzoyl-L-phenylalanyl)-L-phenylalaninate] showed a melting point of 190 to 192 °C and a TC50 (2.2.15 cells) of 240.38 µg/mL (≈ 541 µM).
With `COC(=O)[C@H](Cc1ccccc1)NC(=O)[C@H](Cc1ccccc1)NC(=O)c1ccccc1Cl` [Example 10, methyl N-(N-2-chloro-benzoyl-L-phenylalanyl)-L-phenylalaninate] the melting point was 152.5 to 153.5 °C and the TC50 (2.2.15 cells) was 288.68 µg/mL (≈ 621 µM).
For `COC(=O)[C@H](Cc1ccc(O)cc1)NC(=O)[C@H](Cc1ccccc1)NC(=O)c1ccccc1Cl` [Example 11, methyl N-(N-2-chloro-benzoyl-L-phenylalanyl)-L-tyrosinate], the melting point was 164.5 to 167 °C and the TC50 (2.2.15 cells) was 500.00 µg/mL (≈ 1040 µM).
In the case of `COC(=O)[C@H](Cc1ccccc1)NC(=O)[C@H](Cc1ccc([N+](=O)[O-])cc1)NC(=O)c1ccccc1` [Example 12, methyl N-(N-benzoyl-4-nitro-L-phenylalanyl)-L-phenylalaninate] (Bz-[Phe(4-NO2)]-Phe-OMe), the melting point is reported as 202 to 204.5 °C and the TC50 (2.2.15 cells) is reported as 388.03 µg/mL (≈ 816 µM).
For `Cc1ccc(C(=O)N[C@@H](Cc2ccccc2)C(=O)N[C@H](CO)Cc2ccccc2)cc1` [Example 13, N-(N-4-methyl-benzoyl-L-phenylalanyl)-L-phenylalaninol], the melting point was 200 to 202 °C and the TC50 (2.2.15 cells) was 776.06 µg/mL (≈ 1860 µM).
Work on `COC(=O)[C@H](Cc1ccc([N+](=O)[O-])cc1)NC(=O)[C@H](Cc1ccc([N+](=O)[O-])cc1)NC(=O)c1ccccc1` [Example 15, methyl N-(N-benzoyl-4-nitro-L-phenylalanyl)-4-nitro-L-phenylalaninate] (Bz-[Phe(4-NO2)]-[Phe(4-NO2)]-OMe) yielded a melting point of 220 to 221.5 °C and a TC50 (2.2.15 cells) of 45.69 µg/mL (≈ 87.8 µM).
Compound `O=C(N[C@@H](Cc1ccccc1)C(=O)N[C@H](CO)Cc1ccc([N+](=O)[O-])cc1)c1ccccc1` [Example 16, N-(N-benzoyl-L-phenylalanyl)-4-nitro-L-phenylalaninol] has a melting point of 192 to 195 °C and a TC50 (2.2.15 cells) of 52.34 µg/mL (≈ 117 µM).
Work on `COC(=O)[C@H](Cc1ccc(O)cc1)NC(=O)[C@H](Cc1ccc([N+](=O)[O-])cc1)NC(=O)c1ccc(C)cc1` [Example 18, methyl N-(N-4-methyl-benzoyl-4-nitro-L-phenylalanyl)-L-tyrosinate] yielded a melting point of 213 to 215 °C and a TC50 (2.2.15 cells) of 45.28 µg/mL (≈ 89.6 µM).
Work on `O=C(N[C@@H](Cc1ccc(O)cc1)C(=O)N[C@H](CO)Cc1ccccc1)c1ccc(Cl)cc1` [Example 19, N-(N-4-chloro-benzoyl-L-tyrosyl)-L-phenylalaninol] yielded an IC50 (HBV DNA replication) of 103 µg/mL (≈ 228 µM) and a TC50 (2.2.15 cells) of 587.06 µg/mL (≈ 1300 µM).
In the case of `O=C(N[C@@H](Cc1ccc(O)cc1)C(=O)N[C@H](CO)Cc1ccccc1)c1ccccc1` [Example 21, N-(N-benzoyl-L-tyrosyl)-L-phenylalaninol], the melting point is reported as 216 to 217.5 °C and the TC50 (2.2.15 cells) is reported as 28.74 µg/mL (≈ 68.7 µM).
`Cc1ccc(C(=O)N[C@@H](Cc2ccc(O)cc2)C(=O)N[C@H](CO)Cc2ccccc2)cc1` [Example 26, N-(N-4-methyl-benzoyl-L-tyrosyl)-L-phenylalaninol] showed a melting point of 193 to 195 °C and a TC50 (2.2.15 cells) of 472.10 µg/mL (≈ 1090 µM).
In the case of `O=C(N[C@@H](Cc1ccccc1)C(=O)N[C@H](CO)Cc1ccccc1)c1ccc(O)cc1` [Example 27, N-(N-4-hydroxyl-benzoyl-L-phenylalanyl)-L-phenylalaninol], the melting point is reported as 223 to 225 °C and the TC50 (2.2.15 cells) is reported as 441.29 µg/mL and 456.75 µg/mL.
For `COC(=O)[C@H](Cc1ccc(O)cc1)NC(=O)[C@H](Cc1ccccc1)NCc1ccncc1` [Example 46, methyl N-(N-isonicotinyl-L-phenylalanyl)-L-tyrosinate], the melting point was 216 to 217 °C.
With `O=C(N[C@H](CO)Cc1ccccc1)[C@H](Cc1ccc(O)cc1)NCc1ccncc1` [Example 47, N-(N-isonicotinyl-L-tyrosyl)-L-phenylalaninol] the melting point was 210 to 212 °C and the TC50 (2.2.15 cells) was 256.78 µg/mL (≈ 633 µM).
In the case of `CN(C)Cc1ccc(C(=O)N[C@@H](Cc2ccccc2)C(=O)N[C@H](CO)Cc2ccccc2)cc1` [Example 49, N-[N-(4-dimethylaminomethyl-benzoyl)-L-phenylalanyl]-L-phenylalaninol], the IC50 (HBV DNA replication) is reported as 7.28 µg/mL (≈ 15.8 µM) and the TC50 (2.2.15 cells) is reported as 86.23 µg/mL (≈ 188 µM).
`CC(=O)Nc1ccc(C[C@H](NC(=O)c2ccccc2)C(=O)N[C@H](COC(C)=O)Cc2ccccc2)cc1` [Example 54, N-(N-benzoyl-4-acetamido-L-phenylalanyl)-O-acetyl-L-phenylalaninol] showed an IC50 (HBV DNA replication) of 0.82 µg/mL (≈ 1.63 µM) and a TC50 (2.2.15 cells) of 43.11 µg/mL (≈ 85.9 µM).
In the case of `CC(=O)OC[C@H](Cc1ccccc1)NC(=O)[C@H](Cc1ccccc1)NC(=O)c1ccccc1` [Example 55, N-(N-benzoyl-L-phenylalanyl)-O-acetyl-L-phenylalaninol], the IC50 (HBV DNA replication) is reported as 4.96 µg/mL (≈ 11.2 µM) and the TC50 (2.2.15 cells) is reported as 53.42 µg/mL (≈ 120 µM).
Compound `COC(=O)[C@H](Cc1ccc(N)cc1)NC(=O)[C@H](Cc1ccccc1)NC(=O)c1ccccc1.Cl` [Example 58, methyl N-(N-benzoyl-L-phenylalanyl)-4-amino-L-phenylalaninate hydrochloride] (Bz-Phe-[Phe(4-NH2)]-OMe) has a melting point of 173 to 175 °C and a TC50 (2.2.15 cells) of 28.74 µg/mL.
With `COC(=O)[C@H](Cc1ccc(NC(C)=O)cc1)NC(=O)[C@H](Cc1ccccc1)NC(=O)c1ccccc1` [Example 59, methyl N-(N-benzoyl-L-phenylalanyl)-4-acetamido-L-phenylalaninate] (Bz-Phe-[Phe(4-NH2)](Ac)-OMe) the melting point was 228 to 229.5 °C and the TC50 (2.2.15 cells) was 258.69 µg/mL (≈ 531 µM).
For `COC(=O)[C@H](Cc1ccccc1)NC(=O)[C@H](Cc1ccc(OC(C)=O)c(NC(C)=O)c1)NC(=O)c1ccccc1` [Example 63, methyl N-(N-benzoyl-O-acetyl-3-acetamido-L-tyrosyl)-L-phenylalaninate], the IC50 (HBV DNA replication) was 53.1 µg/mL (≈ 97.4 µM) and the TC50 (2.2.15 cells) was 358.02 µg/mL (≈ 656 µM).
Work on `CCC(=O)Nc1ccc(C[C@H](NC(=O)[C@H](Cc2ccccc2)NC(=O)c2ccccc2)C(=O)OC)cc1` [Example 64, methyl N-(N-benzoyl-L-phenylalanyl)-4-propionamido-L-phenylalaninate] (Bz-Phe-[Phe(4-NH2)](Propionyl)-OMe) yielded a melting point of 244.5 to 246 °C and a TC50 (2.2.15 cells) of 58.54 µg/mL (≈ 117 µM).
`CC(=O)c1ccc(C[C@@H](CO)NC(=O)[C@H](Cc2ccccc2)NC(=O)c2ccccc2)cc1` [Example 69, N-(N-benzoyl-L-phenylalanyl)-4-acetyl-L-phenylalaninol] gave a melting point of 235.5 to 238 °C and a TC50 (2.2.15 cells) of 75.46 µg/mL (≈ 170 µM).
`COC(=O)[C@H](Cc1ccc(OC)cc1)NC(=O)[C@H](Cc1ccccc1)NC(=O)c1ccccc1` [Example 71, methyl N-(N-benzoyl-L-phenylalanyl)-O-methyl-L-tyrosinate] (Bz-Phe-Tyr(Me)-OMe) showed an IC50 (HBV DNA replication) of 6.62 µg/mL (≈ 14.4 µM) and a TC50 (2.2.15 cells) of 388.03 µg/mL (≈ 843 µM).
For `CN(C)CCOc1ccc(C(=O)N[C@@H](Cc2ccccc2)C(=O)N[C@H](CO)Cc2ccccc2)cc1` [Example 77, N-[N-4-(2-dimethylamino-ethoxyl)-benzoyl-L-phenylalanyl]-L-phenylalaninol], the “Inhibition of DNA Replication IC50” value (HBV DNA replication) was 13.51 µg/mL and the TC50 (2.2.15 cells) was 160.25 µg/mL (≈ 327 µM).
In the case of `COC(=O)[C@H](Cc1ccccc1)NC(=O)[C@H](Cc1ccccc1)NC(=O)c1ccc(OCCN(C)C)cc1` [Example 78, methyl N-[N-4-(2-dimethylamino-ethoxyl)-benzoyl-L-phenylalanyl]-L-phenylalaninate], the “Inhibition of DNA Replication IC50” value (HBV DNA replication) is reported as 54.28 µg/mL and the TC50 (2.2.15 cells) is reported as 257.31 µg/mL (≈ 497 µM).
